One data set in a line: in vitro. The following applies: human. The data set is classed as cell-based. Here is the method: HEK293T are model normal (non-cancer) cells that are widely used to compare the selectivity of cytostatic formulations on cancer cells. According to the MTT test, the concentration of cytostatics of 100 µM causes the death of up to 85% of cancer cells A549 (Figure 4a), while for non-cancer cells (HEK293T), the dying rate is only 15–20%.
Adenocarcinomic human alveolar basal epithelial cells A549 cell lines (Manassas, VA, USA) were cultured in RPMI-1640 medium, linear cells of the embryonic kidney human epithelium (HEK293T) were grown in DMEM medium as described earlier. Cell lines were obtained from Lomonosov Moscow State University Depository of Live Systems Collection and Laboratory of Medical Biotechnology, Institute of Biomedical Chemistry (Moscow, Russia).
The cytotoxic activity of paclitaxel, Apiol-PPh3 and analogues was determined using an MTT test. Paclitaxel-adjuvant synergism coefficients (SC) were calculated as CV (paclitaxel) × CV (alone adjuvant)/CV (combo paclitaxel + adjuvant), where CV represents the cell viability. The synergy coefficient can be interpreted as strong synergy (SC > 2), synergy (2 > SC > 1.2), indifference/additivity (1.2 > SC > 0.8), antagonism (0.8 > SC > 0.5), and inhibition (SC < 0.5), as described earlier.

The next data set relates to erythrocytes. Kind of data set: Hemolytic activity. The format is cell-based. The settings on record: 0.1 mg/mL. The text has this: Hemolytic activity and thrombogenicity are the primary parameters for evaluating the safety of medical formulations. The phenotypic sea urchin embryo assay developed by colleagues is a visual way to study the toxicity of formulations in vivo. The sea urchin and human genomes contain more than 7000 common genes, including orthologs associated with a number of human diseases. Therefore, sea urchins can be considered as a reliable and versatile model organism for studying the safety of new and existing cytotoxic formulations in vivo. Table 5 presents data on the % of erythrocyte hemolysis, the degree of whole blood thrombosis of apiol-PPh3 and analogues, and data of phenotypic sea urchin embryo assay. Thus, the non-toxicity of PPh3 derivatives of allylbenzenes for normal non-cancer cells, as well as the selectivity of action against cancer cells, is shown. The selectivity of cytotoxic action against cancer cells in comparison with normal cells can be explained by the fact that the PPh3- cation provides selective accumulation and reduction in the mitochondrial membrane potential of the transformed cancer cells. Cyclodextrin (M-β-CD) and heparin are non-toxic (and approved by the FDA for intravenous application).
The hemolytic activity and thrombogenicity of apiol-PPh3 and analogues were studied using an earlier published technique.

The test system of a further data set is HEK293T cells. Kind of data set: FTIR spectroscopy of HEK293T cells during incubation with drug (penetration/adsorption). The format is cell-based, human. The following applies: 60 min incubation (apiol-PPh3 in M-β-CD) or pre-incubation (doxorubicin controls); 37 °C. The text has this: The main cell structural units that contribute to the absorption of IR diapason can be assigned as follows (Figure 5): lipids of the cell membrane (2800–3000 cm^−1), proteins, especially transmembrane (1500–1700 cm^−1), phosphate groups of DNA (1240 cm^−1) and carbohydrates, including lipopolysaccharides (900–1100 cm^−1). Previously, we developed a technique for tracking the penetration and adsorption of the drug into cells using FTIR spectroscopy: dramatic changes in the intensity of the peaks of amide 1 and amide 2 indicate effective penetration of the drug into cells and vice versa.
Here, we present the real-time data of FTIR spectroscopy during the incubation of a suspension of HEK293T cells with apiol-PPh3 in M-β-CD (Figure 5). […] There is only a shift of the peak of amide 1 to the low-frequency region (inserts in Figure 5, the normalized intensity is shown) and amide 2 to the high-frequency region with the simultaneous appearance of the shoulder. This indicates the only adsorption of drug molecules on the cell surface, which is also confirmed by a weak increase in the intensity of the peaks at 2850–3000 cm^−1 corresponding to the valence vibrations of the CH2 groups (lipid bilayer). Thus, PPh3 derivatives show only marginal activity against normal cells.

Usually viability stands for a read-out of living cells in per cent, often relative to untreated cells. As to `COc1cc(CCC[P+](c2ccccc2)(c2ccccc2)c2ccccc2)c(OC)c(OC)c1OC` [Allyltetramethoxybenzene-PPh3], in “in vitro”, the viability at 10 µM is 98 ± 1%, the viability at 100 µM turned out to be 88 ± 3% and the viability at 300 µM came out at 83 ± 4%. Besides, in the data set on erythrocytes, the “Hemolysis Index” value is 0.7 ± 0.1%.
For `COc1cc(CCC[P+](c2ccccc2)(c2ccccc2)c2ccccc2)c(OC)c2c1OCO2` [Apiol-PPh3], in “in vitro”, the viability at 10 µM stood at 93 ± 2%, the viability at 100 µM was 82 ± 3% and the viability at 300 µM was 71 ± 2%. The “changes in FTIR amide I and II peak intensity of HEK293T cells (drug penetration)” value with HEK293T cells is “practically no changes in the intensity of the peaks of amide I and II”. In addition, the “Hemolysis Index” value in the data set with erythrocytes was 0.8 ± 0.2%.
Consider `COc1c(CCC[P+](c2ccccc2)(c2ccccc2)c2ccccc2)cc2c(c1OC)OCO2` [Dillapiol-PPh3], for which, in “in vitro”, the viability at 10 µM turned out to be 95 ± 3%, the viability at 100 µM was 84 ± 5% and the viability at 300 µM was 70 ± 5%. For the same molecule, in the data set with erythrocytes, the “Hemolysis Index” value amounted to 0.9 ± 0.2%.
The like results for `COc1cc(CCC[P+](c2ccccc2)(c2ccccc2)c2ccccc2)cc2c1OCO2` [Myristicin-PPh3] were, in that order, 97 ± 3%, 91 ± 2%, 75 ± 3% and 0.5 ± 0.1%.

These data come from article PMC10747112, “Triphenylphosphine Derivatives of Allylbenzenes Express Antitumor and Adjuvant Activity When Solubilized with Cyclodextrin-Based Formulations” (Pharmaceuticals, 2023).
